Results taken from ChEMBL document CHEMBL1287741, “Synthesis, antiproliferative activity in cancer cells and theoretical studies of novel 6α,7β-dihydroxyvouacapan-17β-oic acid Mannich base derivatives” (2010).
Values after ≈ are worked out from the molar mass of the structure shown.

Experiments:
Format in all cases: functional
UACC-62 = test: Growth inhibition of human UACC62 cells after 48 hrs by sulforhodamine B assay; conditions: UACC-62, 48 h
MCF7 = test: Growth inhibition of human MCF7 cells after 48 hrs by sulforhodamine B assay; conditions: MCF7, 48 h
NCI/ADR-RES = test: Growth inhibition of human NCI-ADR-RES cells after 48 hrs by sulforhodamine B assay
786-0 = test: Growth inhibition of human 786-0 cells after 48 hrs by sulforhodamine B assay; conditions: 786-0, 48 h
NCI-H460 = test: Growth inhibition of human NCI-H460 cells after 48 hrs by sulforhodamine B assay; conditions: NCI-H460, 48 h
PC-3 = test: Growth inhibition of human PC3 cells after 48 hrs by sulforhodamine B assay; conditions: PC-3, 48 h
OVCAR-3 = test: Growth inhibition of human OVCAR-3 cells after 48 hrs by sulforhodamine B assay; conditions: OVCAR-3, 48 h
HT-29 = test: Growth inhibition of human HT-29 cells after 48 hrs by sulforhodamine B assay; conditions: HT-29, 48 h
K562 = test: Growth inhibition of human K562 cells after 48 hrs by sulforhodamine B assay; conditions: K562, 48 h

| SMILES | GI50 (UACC-62) [µg/mL] | TGI (UACC-62) [µg/mL] | GI50 (MCF7) [µg/mL] | TGI (MCF7) [µg/mL] | GI50 (NCI/ADR-RES) [µg/mL] | TGI (NCI/ADR-RES) [µg/mL] | GI50 (786-0) [µg/mL] | TGI (786-0) [µg/mL] | GI50 (NCI-H460) [µg/mL] | TGI (NCI-H460) [µg/mL] | GI50 (PC-3) [µg/mL] | TGI (PC-3) [µg/mL] | GI50 (OVCAR-3) [µg/mL] | TGI (OVCAR-3) [µg/mL] | GI50 (HT-29) [µg/mL] | TGI (HT-29) [µg/mL] | GI50 (K562) [µg/mL] | TGI (K562) [µg/mL] |
| --- | --- | --- | --- | --- | --- | --- | --- | --- | --- | --- | --- | --- | --- | --- | --- | --- | --- | --- |
| CC(C)CN(Cc1cc2c(o1)C[C@H]1[C@H]3[C@@H](OC(=O)[C@H]23)[C@H](O)[C@H]2C(C)(C)CCC[C@]12C)CC(C)C | 0.86 (≈ 1.82 µM) | 5.27 (≈ 11.2 µM) | 0.69 (≈ 1.46 µM) | 7.4 (≈ 15.7 µM) | 0.39 (≈ 0.827 µM) | 5.39 (≈ 11.4 µM) | 2.5 (≈ 5.3 µM) | 16.6 (≈ 35.3 µM) | 0.29 (≈ 0.615 µM) | 3.2 (≈ 6.78 µM) | 0.98 (≈ 2.08 µM) | 4.06 (≈ 8.61 µM) | 0.28 (≈ 0.594 µM) | 1.86 (≈ 3.94 µM) | 0.67 (≈ 1.42 µM) | 6.91 (≈ 14.6 µM) | 5.06 (≈ 10.7 µM) | 86.1 (≈ 182 µM) |
| CC1(C)CCC[C@@]2(C)C1[C@@H](O)[C@@H]1OC(=O)[C@@H]3c4ccoc4C[C@H]2[C@@H]13 (some centres undefined) | 5.19 (≈ 15.7 µM) | 30 (≈ 90.8 µM) | 27.7 (≈ 83.7 µM) | 214 (≈ 647 µM) | 0.35 (≈ 1.06 µM) | > 250 | 8.87 (≈ 26.8 µM) | 37.3 (≈ 113 µM) | 2.53 (≈ 7.66 µM) | 12.4 (≈ 37.7 µM) | 30.8 (≈ 93.3 µM) | 91.9 (≈ 278 µM) | 0.52 (≈ 1.57 µM) | 8.82 (≈ 26.7 µM) | 52.5 (≈ 159 µM) | > 250 | 2.08 (≈ 6.29 µM) | > 250 |
| CC1(C)CCC[C@]2(C)[C@H]3Cc4oc(CN5CCCCC5)cc4[C@H]4C(=O)O[C@@H]([C@H](O)[C@@H]12)[C@@H]43 | 2.44 (≈ 5.71 µM) | 3.96 (≈ 9.26 µM) | 0.88 (≈ 2.06 µM) | 3.82 (≈ 8.93 µM) | 2.65 (≈ 6.2 µM) | 7.1 (≈ 16.6 µM) | 2.31 (≈ 5.4 µM) | 4.11 (≈ 9.61 µM) | 2.5 (≈ 5.85 µM) | 4.64 (≈ 10.9 µM) | 0.27 (≈ 0.631 µM) | 0.78 (≈ 1.82 µM) | 2.37 (≈ 5.54 µM) | 4.36 (≈ 10.2 µM) | 1.76 (≈ 4.12 µM) | 2.23 (≈ 5.22 µM) | 0.32 (≈ 0.748 µM) | 4.55 (≈ 10.6 µM) |
| COc1cccc2c1C(=O)c1c(O)c3c(c(O)c1C2=O)C[C@@](O)(C(=O)CO)C[C@@H]3O[C@H]1C[C@H](N)[C@H](O)[C@H](C)O1 [DOXORUBICIN] | 0.09 (≈ 0.166 µM) | 0.33 (≈ 0.607 µM) | 0.03 (≈ 0.0552 µM) | 3.3 (≈ 6.07 µM) | 0.33 (≈ 0.607 µM) | 6.6 (≈ 12.1 µM) | 0.04 (≈ 0.0736 µM) | 2.67 (≈ 4.91 µM) | < 0.03 | 0.9 (≈ 1.66 µM) | 0.28 (≈ 0.515 µM) | 5.85 (≈ 10.8 µM) | 0.08 (≈ 0.147 µM) | 2.95 (≈ 5.43 µM) | 0.07 (≈ 0.129 µM) | 3.9 (≈ 7.18 µM) | 0.4 (≈ 0.736 µM) | 20.5 (≈ 37.7 µM) |
| CC1(C)CCC[C@]2(C)[C@H]3Cc4oc(CN5CCOCC5)cc4[C@H]4C(=O)O[C@@H]([C@H](O)[C@@H]12)[C@@H]43 | 2.5 (≈ 5.82 µM) | 4.36 (≈ 10.1 µM) | 2.45 (≈ 5.7 µM) | 4.77 (≈ 11.1 µM) | 2.73 (≈ 6.36 µM) | 6.34 (≈ 14.8 µM) | 2.37 (≈ 5.52 µM) | 4.04 (≈ 9.41 µM) | 2.69 (≈ 6.26 µM) | 4.05 (≈ 9.43 µM) | 0.27 (≈ 0.629 µM) | 1.27 (≈ 2.96 µM) | 2.6 (≈ 6.05 µM) | 8.05 (≈ 18.7 µM) | 1.68 (≈ 3.91 µM) | 3.68 (≈ 8.57 µM) | 2.39 (≈ 5.56 µM) | 8.24 (≈ 19.2 µM) |
| CC1(C)CCC[C@]2(C)[C@H]3Cc4oc(CN5CCCC5)cc4[C@H]4C(=O)O[C@@H]([C@H](O)[C@@H]12)[C@@H]43 | 0.78 (≈ 1.89 µM) | 3.05 (≈ 7.38 µM) | 1.81 (≈ 4.38 µM) | 3.86 (≈ 9.33 µM) | 2.5 (≈ 6.05 µM) | 6.18 (≈ 14.9 µM) | 0.76 (≈ 1.84 µM) | 3.98 (≈ 9.62 µM) | 2.5 (≈ 6.05 µM) | 4.94 (≈ 11.9 µM) | 0.34 (≈ 0.822 µM) | 1.69 (≈ 4.09 µM) | 2.5 (≈ 6.05 µM) | 5.28 (≈ 12.8 µM) | 0.3 (≈ 0.725 µM) | 1.61 (≈ 3.89 µM) | 1.58 (≈ 3.82 µM) | 23.2 (≈ 56.1 µM) |
| CCN(CC)Cc1cc2c(o1)C[C@H]1[C@H]3[C@@H](OC(=O)[C@H]23)[C@H](O)[C@H]2C(C)(C)CCC[C@]12C | 0.57 (≈ 1.37 µM) | 2.55 (≈ 6.14 µM) | 0.27 (≈ 0.65 µM) | 1.44 (≈ 3.47 µM) | 3.12 (≈ 7.51 µM) | 8.15 (≈ 19.6 µM) | 2.23 (≈ 5.37 µM) | 2.49 (≈ 5.99 µM) | 1.35 (≈ 3.25 µM) | 3.23 (≈ 7.77 µM) | 0.28 (≈ 0.674 µM) | 0.58 (≈ 1.4 µM) | 2.5 (≈ 6.02 µM) | 5.62 (≈ 13.5 µM) | 0.32 (≈ 0.77 µM) | 1.14 (≈ 2.74 µM) | < 0.25 | 3.01 (≈ 7.24 µM) |
| CCCN(CCC)Cc1cc2c(o1)C[C@H]1[C@H]3[C@@H](OC(=O)[C@H]23)[C@H](O)[C@H]2C(C)(C)CCC[C@]12C | 2.76 (≈ 6.22 µM) | 4.96 (≈ 11.2 µM) | 2.5 (≈ 5.64 µM) | 5.31 (≈ 12 µM) | 2.64 (≈ 5.95 µM) | 5.53 (≈ 12.5 µM) | 2.5 (≈ 5.64 µM) | 3.72 (≈ 8.39 µM) | 2.96 (≈ 6.67 µM) | 6.01 (≈ 13.5 µM) | 2.4 (≈ 5.41 µM) | 3.83 (≈ 8.63 µM) | 2.36 (≈ 5.32 µM) | 3.9 (≈ 8.79 µM) | 2.33 (≈ 5.25 µM) | 3.35 (≈ 7.55 µM) | 2.77 (≈ 6.24 µM) | 8.87 (≈ 20 µM) |
